Consider 32 compounds from US8901133B2, “Heterocyclic compounds and uses thereof” (Infinity Pharmaceuticals, Inc., priority 2010, dated 2014).

Molecules are shown by their SMILES.

Assay type in all cases: biochemical
One experiment concerns the target T1, PI3Kδ (Homo sapiens, UniProt O00329).
T1 construct: purchased Millipore Corporation 14-604-K
Nature of the experiment: PI3 Kinase HTRF assay, PI3Kδ. The conditions noted are these: 10 μM PIP2, 10 μM ATP; read-out: PI3K δ IC50. The source says:
(§1) A PI3 Kinase HTRF® assay kit (cat No. 33-016) purchased from Millipore Corporation was used to screen compounds disclosed herein. This assay used specific, high affinity binding of the GRP1 pleckstrin homology (PH) domain to PIP3, the product of a Class 1A or 1B PI3 Kinase acting on its physiological substrate PIP2. During the detection phase of the assay, a complex was generated between the GST-tagged PH domain and biotinylated short chain PIP3. The biotinylated PIP3 and the GST-tagged PH domain recruited fluorophores (Streptavidin-Allophycocyanin and Europium-labeled anti-GST respectively) to form the fluorescence resonance energy transfer (FRET) architecture, generating a stable time-resolved FRET signal. The FRET complex was disrupted in a competitive manner by non-biotinylated PIP3, a product formed in the PI3 Kinase assay.
(§2) PI3 Kinase α, β, γ and δ activity was assayed using the PI3 Kinase HTRF® assay kit (catalogue No. 33-016) purchased from Millipore Corporation. Purified recombinant PI3Kα (catalogue No. 14-602-K), PI3Kβ (catalogue No. 14-603-K), PI3Kγ (catalogue No. 14-558-K) and PI3Kδ (catalogue No. 14-604-K) were obtained from Millipore Corporation. Purified recombinant PI3K enzyme was used to catalyze the phosphorylation of phosphatidylinositol 4,5-bisphosphate (PIP2 at 10 μM) to phosphatidylinositol 3,4,5-trisphosphate (PIP3) in the presence of 10 μM ATP. The assay was carried out in 384-well format and detected using a Perkin Elmer En Vision Xcite Multilabel Reader. Emission ratios were converted into percent inhibitions and imported into GraphPad Prism software. The concentration necessary to achieve inhibition of enzyme activity by 50% (IC50) was calculated using concentrations ranging from 20 μM to 0.1 nM (12-point curve). IC50 values were determined using a nonlinear regression model available in GraphPad Prism 5. […]

The target in the next experiment is T2, PI3Kγ (Homo sapiens, UniProt P48736).
T2 construct: purchased Millipore Corporation 14-558-K
T2 sequence (P48736 whole entry): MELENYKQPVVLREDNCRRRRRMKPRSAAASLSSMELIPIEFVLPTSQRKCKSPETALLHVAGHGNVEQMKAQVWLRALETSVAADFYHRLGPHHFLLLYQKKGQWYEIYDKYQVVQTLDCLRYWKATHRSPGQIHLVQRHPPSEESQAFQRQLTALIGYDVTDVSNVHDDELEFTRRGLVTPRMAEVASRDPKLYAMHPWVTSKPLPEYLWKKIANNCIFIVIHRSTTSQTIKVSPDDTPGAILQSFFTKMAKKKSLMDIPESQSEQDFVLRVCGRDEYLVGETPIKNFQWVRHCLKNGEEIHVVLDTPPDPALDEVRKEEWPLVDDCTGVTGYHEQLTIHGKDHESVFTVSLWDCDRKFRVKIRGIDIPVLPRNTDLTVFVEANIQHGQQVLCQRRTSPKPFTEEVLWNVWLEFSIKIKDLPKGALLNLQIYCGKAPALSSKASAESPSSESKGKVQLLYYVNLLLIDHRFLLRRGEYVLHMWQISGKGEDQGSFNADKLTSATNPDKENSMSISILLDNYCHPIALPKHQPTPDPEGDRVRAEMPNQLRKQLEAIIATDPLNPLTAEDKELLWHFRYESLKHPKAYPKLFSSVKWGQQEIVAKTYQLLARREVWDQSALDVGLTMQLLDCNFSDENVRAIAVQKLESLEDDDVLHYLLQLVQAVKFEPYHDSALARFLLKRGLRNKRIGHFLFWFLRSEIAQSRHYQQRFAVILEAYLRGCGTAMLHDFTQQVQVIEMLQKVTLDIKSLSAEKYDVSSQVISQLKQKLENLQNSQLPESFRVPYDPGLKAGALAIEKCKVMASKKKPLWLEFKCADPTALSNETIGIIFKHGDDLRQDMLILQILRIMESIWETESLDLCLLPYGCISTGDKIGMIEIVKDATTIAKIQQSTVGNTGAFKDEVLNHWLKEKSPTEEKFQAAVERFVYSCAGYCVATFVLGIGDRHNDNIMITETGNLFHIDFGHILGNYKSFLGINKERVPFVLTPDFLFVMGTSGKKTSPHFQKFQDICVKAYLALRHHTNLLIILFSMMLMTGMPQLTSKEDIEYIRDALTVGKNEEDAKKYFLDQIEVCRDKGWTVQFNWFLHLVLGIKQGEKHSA
Nature of the experiment: PI3 Kinase HTRF assay, PI3Kγ. The settings on record: 10 μM PIP2, 10 μM ATP; read-out: PI3K γ IC50.
Source text: as §1, §2
In general terms: Time-resolved FRET reads energy transfer from a long-lived donor to a nearby acceptor.

In another experiment the target is T3, PI3Kα (Homo sapiens, UniProt P42336).
T3 construct: purchased Millipore Corporation 14-602-K
T3 sequence (P42336 whole entry): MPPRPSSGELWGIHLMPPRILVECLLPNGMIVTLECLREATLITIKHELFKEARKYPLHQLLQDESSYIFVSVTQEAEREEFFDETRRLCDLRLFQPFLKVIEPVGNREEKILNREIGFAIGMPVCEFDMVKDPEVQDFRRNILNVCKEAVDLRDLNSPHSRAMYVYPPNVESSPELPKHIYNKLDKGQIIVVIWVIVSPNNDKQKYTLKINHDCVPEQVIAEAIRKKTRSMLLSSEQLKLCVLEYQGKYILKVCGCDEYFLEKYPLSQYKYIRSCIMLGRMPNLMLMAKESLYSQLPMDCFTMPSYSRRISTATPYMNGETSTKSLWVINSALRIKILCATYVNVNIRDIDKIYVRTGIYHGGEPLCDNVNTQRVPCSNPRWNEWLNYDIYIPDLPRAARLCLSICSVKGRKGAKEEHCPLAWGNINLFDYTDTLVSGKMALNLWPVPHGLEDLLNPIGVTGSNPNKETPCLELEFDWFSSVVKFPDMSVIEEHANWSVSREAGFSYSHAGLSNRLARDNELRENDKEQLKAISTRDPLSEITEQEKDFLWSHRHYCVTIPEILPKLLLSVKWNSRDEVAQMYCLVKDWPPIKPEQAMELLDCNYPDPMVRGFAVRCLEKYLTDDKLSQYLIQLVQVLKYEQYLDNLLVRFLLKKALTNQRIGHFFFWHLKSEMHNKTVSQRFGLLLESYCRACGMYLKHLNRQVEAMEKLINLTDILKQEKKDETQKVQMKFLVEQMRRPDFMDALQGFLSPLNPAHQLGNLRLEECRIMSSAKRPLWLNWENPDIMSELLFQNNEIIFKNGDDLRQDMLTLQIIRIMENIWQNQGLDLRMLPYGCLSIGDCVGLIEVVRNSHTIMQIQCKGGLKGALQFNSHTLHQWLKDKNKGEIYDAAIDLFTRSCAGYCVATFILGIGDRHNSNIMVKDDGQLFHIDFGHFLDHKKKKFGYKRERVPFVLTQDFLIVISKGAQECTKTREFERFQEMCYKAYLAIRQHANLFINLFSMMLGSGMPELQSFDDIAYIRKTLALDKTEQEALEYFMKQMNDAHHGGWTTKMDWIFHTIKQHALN
T3 sequence (P27986 whole entry partner): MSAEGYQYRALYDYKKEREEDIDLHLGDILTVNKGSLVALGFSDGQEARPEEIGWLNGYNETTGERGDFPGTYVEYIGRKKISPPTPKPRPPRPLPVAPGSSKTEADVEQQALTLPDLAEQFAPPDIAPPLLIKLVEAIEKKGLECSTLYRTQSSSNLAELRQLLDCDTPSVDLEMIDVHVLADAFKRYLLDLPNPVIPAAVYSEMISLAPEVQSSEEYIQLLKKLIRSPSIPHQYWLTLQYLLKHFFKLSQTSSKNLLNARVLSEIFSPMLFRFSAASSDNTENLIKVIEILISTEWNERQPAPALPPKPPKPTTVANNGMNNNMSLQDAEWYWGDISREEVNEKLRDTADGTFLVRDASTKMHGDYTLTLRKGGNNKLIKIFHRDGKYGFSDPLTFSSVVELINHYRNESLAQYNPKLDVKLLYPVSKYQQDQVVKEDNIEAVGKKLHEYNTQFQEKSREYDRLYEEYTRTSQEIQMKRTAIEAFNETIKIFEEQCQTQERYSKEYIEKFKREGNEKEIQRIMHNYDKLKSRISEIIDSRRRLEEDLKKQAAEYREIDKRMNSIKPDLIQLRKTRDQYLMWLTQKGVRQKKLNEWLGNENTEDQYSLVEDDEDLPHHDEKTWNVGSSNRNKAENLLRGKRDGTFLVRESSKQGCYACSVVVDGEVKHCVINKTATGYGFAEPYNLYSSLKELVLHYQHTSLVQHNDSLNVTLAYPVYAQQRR
Nature of the experiment: PI3 Kinase HTRF assay, PI3Kα. The conditions noted are these: 10 μM PIP2, 10 μM ATP; read-out: PI3K α IC50.
Source text: as §1, §2

The target of the next experiment is T4, PI3Kβ (Homo sapiens, UniProt P42338).
T4 construct: purchased Millipore Corporation 14-603-K
T4 sequence (P42338 whole entry): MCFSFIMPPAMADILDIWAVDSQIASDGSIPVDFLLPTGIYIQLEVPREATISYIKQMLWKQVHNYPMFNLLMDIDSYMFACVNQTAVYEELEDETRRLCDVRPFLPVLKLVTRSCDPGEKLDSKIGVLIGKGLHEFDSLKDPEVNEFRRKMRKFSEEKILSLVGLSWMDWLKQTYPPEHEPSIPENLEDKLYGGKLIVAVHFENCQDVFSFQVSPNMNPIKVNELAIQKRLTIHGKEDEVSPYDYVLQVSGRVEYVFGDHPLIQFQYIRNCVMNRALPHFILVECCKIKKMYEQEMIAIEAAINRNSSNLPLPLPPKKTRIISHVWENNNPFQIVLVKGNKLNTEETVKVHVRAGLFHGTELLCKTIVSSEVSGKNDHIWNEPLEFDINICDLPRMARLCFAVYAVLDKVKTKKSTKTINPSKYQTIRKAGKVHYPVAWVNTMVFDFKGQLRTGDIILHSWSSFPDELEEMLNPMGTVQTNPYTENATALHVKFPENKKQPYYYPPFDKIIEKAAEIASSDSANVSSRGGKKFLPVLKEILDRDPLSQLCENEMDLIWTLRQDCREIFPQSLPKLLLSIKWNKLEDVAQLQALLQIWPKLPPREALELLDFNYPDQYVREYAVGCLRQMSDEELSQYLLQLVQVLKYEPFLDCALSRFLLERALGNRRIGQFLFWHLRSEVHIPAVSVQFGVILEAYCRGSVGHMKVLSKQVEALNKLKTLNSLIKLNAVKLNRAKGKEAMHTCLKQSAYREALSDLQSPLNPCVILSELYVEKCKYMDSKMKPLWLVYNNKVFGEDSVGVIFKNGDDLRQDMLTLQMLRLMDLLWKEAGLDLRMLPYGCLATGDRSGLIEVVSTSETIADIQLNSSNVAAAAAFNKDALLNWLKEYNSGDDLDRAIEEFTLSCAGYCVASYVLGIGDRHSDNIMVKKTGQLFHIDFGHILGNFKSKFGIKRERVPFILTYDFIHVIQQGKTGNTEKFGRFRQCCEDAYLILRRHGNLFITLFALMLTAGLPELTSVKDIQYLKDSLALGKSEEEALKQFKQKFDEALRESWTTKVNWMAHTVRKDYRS
T4 sequence (P27986 whole entry partner): as the sequence (P27986 whole entry partner) above
Nature of the experiment: PI3 Kinase HTRF assay, PI3Kβ. The conditions noted are these: 10 μM PIP2, 10 μM ATP; read-out: PI3K β IC50.
Source text: as §1, §2

T1 sequence (O00329 whole entry): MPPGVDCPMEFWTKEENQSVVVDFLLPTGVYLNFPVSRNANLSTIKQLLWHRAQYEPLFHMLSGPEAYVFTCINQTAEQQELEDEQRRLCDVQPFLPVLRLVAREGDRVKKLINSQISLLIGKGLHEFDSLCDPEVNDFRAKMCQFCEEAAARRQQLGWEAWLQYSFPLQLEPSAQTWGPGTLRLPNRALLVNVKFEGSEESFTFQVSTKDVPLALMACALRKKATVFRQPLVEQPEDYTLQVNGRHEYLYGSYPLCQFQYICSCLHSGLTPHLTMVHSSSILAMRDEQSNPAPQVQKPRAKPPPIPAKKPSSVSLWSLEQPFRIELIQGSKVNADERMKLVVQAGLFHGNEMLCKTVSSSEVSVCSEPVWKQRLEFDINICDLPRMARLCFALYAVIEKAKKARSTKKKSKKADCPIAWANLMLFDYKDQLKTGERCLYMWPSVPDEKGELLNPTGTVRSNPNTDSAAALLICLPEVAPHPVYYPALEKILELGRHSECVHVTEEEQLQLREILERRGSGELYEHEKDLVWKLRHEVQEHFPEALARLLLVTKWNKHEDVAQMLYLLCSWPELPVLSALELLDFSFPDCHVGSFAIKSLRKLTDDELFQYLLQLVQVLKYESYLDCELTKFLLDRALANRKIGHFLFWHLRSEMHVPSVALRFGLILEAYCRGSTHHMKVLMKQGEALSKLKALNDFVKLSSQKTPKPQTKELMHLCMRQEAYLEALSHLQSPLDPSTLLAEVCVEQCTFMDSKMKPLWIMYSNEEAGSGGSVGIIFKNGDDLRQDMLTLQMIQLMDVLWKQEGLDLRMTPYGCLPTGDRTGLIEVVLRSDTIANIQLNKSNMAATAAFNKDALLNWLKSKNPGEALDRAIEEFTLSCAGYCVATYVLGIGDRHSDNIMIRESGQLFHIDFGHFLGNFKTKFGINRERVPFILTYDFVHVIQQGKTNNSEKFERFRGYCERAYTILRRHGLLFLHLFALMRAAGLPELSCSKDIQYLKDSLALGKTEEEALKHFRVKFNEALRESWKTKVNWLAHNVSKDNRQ
T1 sequence (P27986 whole entry partner): as the sequence (P27986 whole entry partner) above

For orientation: IC50 means the concentration needed to halve the response being measured. Turning to `C[C@H](Nc1ncnc2[nH]cnc12)c1cc2cccc(Cl)c2c(S(=O)(=O)CCN2CCOCC2)n1` [Compound 134], the IC50 was under 1 µM at PI3Kδ, over 10 µM at PI3Kγ, over 10 µM on PI3Kα and over 10 µM on PI3Kβ.
For the compound `CNC(=O)NCCOc1nc([C@H](C)Nc2ncnc3[nH]cnc23)cc2cccc(Cl)c12` [Compound 139], the IC50 at PI3Kδ was under 1 µM; at PI3Kγ, under 10 µM; at PI3Kα it was over 10 µM; on PI3Kβ, under 10 µM.
In the case of `C[C@H](Nc1ncnc2[nH]cnc12)c1cc2cccc(-c3cnn(C)c3)c2c(N2CCN(C)CC2)n1` [Compound 142], the IC50 on PI3Kδ is under 1 µM; at PI3Kγ, over 10 µM; on PI3Kα, over 10 µM; at PI3Kβ, under 10 µM.
For the compound `C[C@H](Nc1ncnc2cccnc12)c1cc2cccc(Cl)c2c(C(=O)NC2CCOCC2)n1` [Compound 143], the IC50 at PI3Kδ was under 1 µM; on PI3Kγ, under 10 µM; at PI3Kα, over 10 µM; at PI3Kβ, over 10 µM.
For the compound `Cc1cccc2cc([C@H](C)Nc3ncnc4[nH]cnc34)nc(C(=O)N3CCOCC3)c12` [Compound 147], the IC50 is under 1 µM at PI3Kδ, under 10 µM on PI3Kγ, over 10 µM at PI3Kα and over 10 µM at PI3Kβ.
`C[C@H](Nc1ncnc2cccnc12)c1cc2cccc(-c3cnn(C)c3)c2c(OCCN2CCCC2)n1` [Compound 148]: the half-inhibitory concentration (IC50) on PI3Kδ is under 1 µM; at PI3Kγ, under 10 µM; at PI3Kα it was under 10 µM; on PI3Kβ, over 10 µM.
For `C[C@H](Nc1ncnc2cccnc12)c1cc2cccc(-c3cnn(C)c3)c2c(CCN2CCOCC2)n1` [Compound 154], the IC50 on PI3Kδ was under 1 µM; on PI3Kγ, under 10 µM; on PI3Kα it was under 10 µM; at PI3Kβ it was over 10 µM.
On to `C[C@H](Nc1ncnc2[nH]cnc12)c1cc2cccc(-c3cnn(C)c3)c2c(CCN2CCOCC2)n1` [Compound 157], for which the IC50 on PI3Kδ was under 1 µM; at PI3Kγ it was under 10 µM; at PI3Kα, over 10 µM; on PI3Kβ, over 10 µM.
For `Cc1nc([C@H](C)Nc2ncnc3[nH]cnc23)cc2cccc(-c3cccnc3)c12` [Compound 170], the half-maximal inhibitory concentration (IC50) at PI3Kδ was under 0.1 µM; at PI3Kγ, under 10 µM; at PI3Kα, over 10 µM; on PI3Kβ it was over 10 µM.
Take `Cc1nc([C@H](C)Nc2ncnc3[nH]cnc23)cc2cccc(-c3cnn(C)c3)c12` [Compound 171]: the IC50 on PI3Kδ is under 0.1 µM; at PI3Kγ, under 10 µM; at PI3Kα it was under 10 µM; at PI3Kβ it was over 10 µM.
As to `C[C@H](Nc1ccnc2ccnn12)c1cc2cccc(Cl)c2c(OC2CCN(S(C)(=O)=O)CC2)n1` [Compound 174], the half-inhibitory concentration (IC50) was under 1 µM at PI3Kδ, over 10 µM at PI3Kγ, over 10 µM at PI3Kα and under 10 µM on PI3Kβ.
On to `C[C@H](Nc1ncnc2cccnc12)c1cc2cccc(-c3cnn(C)c3)c2c(C(=O)N2CCOCC2)n1` [Compound 187], for which the IC50 was under 1 µM at PI3Kδ, under 10 µM at PI3Kγ, under 10 µM at PI3Kα and over 10 µM at PI3Kβ.
Consider `C[C@H](Nc1ncnc2[nH]cnc12)c1cc2cccc(-c3cnn(C)c3)c2c(Cl)n1` [Compound 193], for which the concentration for half-maximal inhibition (IC50) on PI3Kδ is under 0.1 µM; on PI3Kγ, under 1 µM; on PI3Kα, over 10 µM; on PI3Kβ it was over 10 µM.
As to `Cc1nc([C@H](C)Nc2ncnc3[nH]cnc23)cc2cccc(C(=O)N3CCOCC3)c12` [Compound 198], the IC50 at PI3Kδ is under 1 µM; at PI3Kγ it was over 10 µM; at PI3Kα it was over 10 µM; at PI3Kβ it was over 10 µM.
In the case of `Cc1nc([C@H](C)Nc2ncnc3[nH]cnc23)cc2cccc(C(=O)N3C4CCC3COC4)c12` [Compound 199], the IC50 on PI3Kδ was under 10 µM; at PI3Kγ it was over 10 µM; on PI3Kα, over 10 µM; on PI3Kβ, over 10 µM.
With `C[C@H](Nc1ncnc2cccnc12)c1cc2cccc(-c3cnn(C)c3)c2c(C(=O)N2C3CCC2COC3)n1` [Compound 200], the IC50 was under 1 µM on PI3Kδ, over 10 µM on PI3Kγ, over 10 µM at PI3Kα and over 10 µM on PI3Kβ.
As to `C[C@H](Nc1ncnc2[nH]cnc12)c1cc2cccc(-c3cnn(C)c3)c2c(C(=O)N2C3CCC2COC3)n1` [Compound 201], the IC50 on PI3Kδ is under 0.1 µM; on PI3Kγ, under 1 µM; on PI3Kα, over 10 µM; at PI3Kβ, over 10 µM.
For `Cc1nc([C@H](C)Nc2ncnc3[nH]cnc23)cc2cccc(C(=O)N3CCN(C)CC3)c12` [Compound 202], the half-inhibitory concentration (IC50) on PI3Kδ, on PI3Kγ, at PI3Kα and at PI3Kβ was over 10 µM each time.
`C[C@H](Nc1ncnc2[nH]cc(C#N)c12)c1cc2cccc(Cl)c2c(C(=O)N2CCOCC2)n1` [Compound 203]: the half-inhibitory concentration (IC50) is under 0.1 µM on PI3Kδ, under 1 µM at PI3Kγ, under 10 µM on PI3Kα and under 10 µM at PI3Kβ.
`C[C@H](Nc1ncnc2[nH]cc(F)c12)c1cc2cccc(Cl)c2c(C(=O)N2CCOCC2)n1` [Compound 205]: the IC50 on PI3Kδ was under 0.1 µM; on PI3Kγ it was under 1 µM; at PI3Kα it was under 10 µM; at PI3Kβ, under 10 µM.
As to `C[C@H](Nc1ncnc2[nH]cc(C#N)c12)c1cc2cccc(Cl)c2c(C(=O)N2C3CCC2COC3)n1` [Compound 206], the 50% inhibitory concentration (IC50) on PI3Kδ is under 0.1 µM; at PI3Kγ, under 10 µM; at PI3Kα, over 10 µM; on PI3Kβ, under 10 µM.
Regarding `C[C@H](Nc1ncnc2scnc12)c1cc2cccc(Cl)c2c(C(=O)NC2CCNCC2)n1` [Compound 209], the IC50 was under 0.1 µM at PI3Kδ, over 10 µM on PI3Kγ, under 10 µM on PI3Kα and over 10 µM at PI3Kβ.
`C[C@H](Nc1ncnc2scnc12)c1cc2cccc(Cl)c2c(C(=O)NC2CCN(C)CC2)n1` [Compound 210]: the IC50 at PI3Kδ was under 0.1 µM; on PI3Kγ, over 10 µM; at PI3Kα, over 10 µM; on PI3Kβ, over 10 µM.
On to `CC(C)N1CCC(NC(=O)c2nc([C@H](C)Nc3ncnc4scnc34)cc3cccc(Cl)c23)CC1` [Compound 211], for which the half-maximal inhibitory concentration (IC50) on PI3Kδ is under 1 µM; at PI3Kγ it was over 10 µM; on PI3Kα it was over 10 µM; at PI3Kβ it was over 10 µM.
For the compound `C[C@H](Nc1ncnc2scnc12)c1cc2cccc(Cl)c2c(C(=O)NC2CCOC2)n1` (some centres unmarked) [Compound 215], the IC50 was under 0.1 µM on PI3Kδ, under 10 µM on PI3Kγ, over 10 µM at PI3Kα and over 10 µM on PI3Kβ.
As to `C[C@H](Nc1ncnc2scnc12)c1cc2cccc(Cl)c2c(C(=O)NCC2CCOCC2)n1` [Compound 216], the IC50 was under 1 µM at PI3Kδ, over 10 µM at PI3Kγ, over 10 µM at PI3Kα and over 10 µM on PI3Kβ.
Take `C[C@H](Nc1nc(N)ncc1C(F)(F)F)c1cc2cccc(Cl)c2c(C(=O)N2CCOCC2)n1` [Compound 217]: the concentration for half-maximal inhibition (IC50) is under 1 µM on PI3Kδ, under 10 µM at PI3Kγ, over 10 µM on PI3Kα and over 10 µM at PI3Kβ.
Turning to `C[C@H](Nc1ncnc2scnc12)c1cc2cccc(Cl)c2c(C(=O)N2CCNC(=O)C2)n1` [Compound 218], the 50% inhibitory concentration (IC50) is under 0.1 µM at PI3Kδ, under 1 µM on PI3Kγ, over 10 µM at PI3Kα and under 10 µM at PI3Kβ.
Take `C[C@H](Nc1ncnc2cccnc12)c1cc2cccc(Cl)c2c(C(=O)N2CCS(=O)(=O)CC2)n1` [Compound 219]: the IC50 on PI3Kδ was under 1 µM; on PI3Kγ it was under 1 µM; on PI3Kα, over 10 µM; at PI3Kβ, over 10 µM.
For the compound `CC1CN(C(=O)c2nc([C@H](C)Nc3ncnc4scnc34)cc3cccc(Cl)c23)CCO1` (some centres unmarked) [Compound 221], the IC50 on PI3Kδ was under 0.1 µM; on PI3Kγ it was under 1 µM; at PI3Kα it was over 10 µM; at PI3Kβ, over 10 µM.
On to `CC1CN(C(=O)c2nc([C@H](C)Nc3ncnc4cccnc34)cc3cccc(Cl)c23)CCO1` (some centres unmarked) [Compound 222], for which the half-inhibitory concentration (IC50) is under 1 µM on PI3Kδ, under 1 µM on PI3Kγ, under 10 µM at PI3Kα and over 10 µM on PI3Kβ.
As for `C[C@H](Nc1ncnc2scnc12)c1cc2cccc(Cl)c2c(C(=O)N(C)C)n1` [Compound 223], the half-inhibitory concentration (IC50) on PI3Kδ was under 1 µM; on PI3Kγ, under 1 µM; on PI3Kα it was over 10 µM; at PI3Kβ, under 10 µM.
